Measurements taken from the NIST ThermoML archive (doi:10.1016/j.jct.2015.07.005).
Where “and” joins values, the source holds several entries; their conditions need not be identical. Equal values may be shown once. Numbers after ± are expanded uncertainties.

Settings: Gas, Frequency=0.005 MHz, Spherical cavity resonance method

F/C=C/C(F)(F)F [trans-1,3,3,3-tetrafluoropropene]
Settings | speed of sound
279.9 K, 79.55 kPa | 146.69 ± 0.038 m/s and 146.7 ± 0.038 m/s
279.9 K, 157.55 kPa | 143.78 ± 0.038 m/s
279.9 K, 241.33 kPa | 140.43 ± 0.038 m/s
279.91 K, 79.56 kPa | 146.7 ± 0.038 m/s
279.91 K, 241.34 kPa | 140.43 ± 0.038 m/s
279.92 K, 157.55 kPa | 143.79 ± 0.038 m/s
279.92 K, 241.34 kPa | 140.43 ± 0.038 m/s
299.96 K, 80.04 kPa | 152.13 ± 0.038 m/s
299.96 K, 239.74 kPa | 147.27 ± 0.039 m/s
299.97 K, 80.03 kPa | 152.13 ± 0.039 m/s
299.97 K, 159.07 kPa | 149.78 ± 0.039 m/s
299.97 K, 239.75 kPa | 147.27 ± 0.038 m/s
299.97 K, 361.26 kPa | 143.22 ± 0.039 m/s
299.98 K, 80.03 kPa | 152.13 ± 0.039 m/s
299.98 K, 159.07 kPa | 149.78 ± 0.039 m/s
299.98 K, 239.74 kPa | 147.27 ± 0.039 m/s
299.98 K, 361.27 kPa | 143.22 ± 0.039 m/s
319.93 K, 552.34 kPa | 144.79 ± 0.043 m/s
319.94 K, 98.42 kPa | 156.86 ± 0.039 m/s
319.94 K, 195.83 kPa | 154.47 ± 0.039 m/s
319.94 K, 195.84 kPa | 154.47 ± 0.039 m/s
319.94 K, 400.99 kPa | 149.11 ± 0.039 m/s
319.94 K, 552.38 kPa | 144.78 ± 0.042 m/s
319.94 K, 552.39 kPa | 144.78 ± 0.043 m/s
319.95 K, 98.42 kPa | 156.87 ± 0.053 m/s
319.95 K, 195.84 kPa | 154.47 ± 0.039 m/s
319.95 K, 400.99 kPa | 149.1 ± 0.041 m/s
319.96 K, 98.42 kPa | 156.86 ± 0.039 m/s
319.97 K, 790.74 kPa | 137.11 ± 0.043 m/s
319.97 K, 790.76 kPa | 137.11 ± 0.045 m/s
319.98 K, 790.76 kPa | 137.11 ± 0.045 m/s
319.98 K, 790.77 kPa | 137.11 ± 0.045 m/s
319.99 K, 790.81 kPa | 137.11 ± 0.045 m/s
339.94 K, 1198.3 kPa | 134.8 ± 0.048 m/s and 134.79 ± 0.049 m/s
339.95 K, 199.81 kPa | 159.81 ± 0.04 m/s
339.95 K, 199.82 kPa | 159.81 ± 0.04 m/s
339.95 K, 311.18 kPa | 157.48 ± 0.041 m/s
339.95 K, 311.19 kPa | 157.48 ± 0.041 m/s
339.95 K, 511.43 kPa | 153.07 ± 0.041 m/s
339.95 K, 511.55 kPa | 153.07 ± 0.043 m/s
339.95 K, 797.03 kPa | 146.18 ± 0.046 m/s
339.95 K, 797.04 kPa | 146.18 ± 0.046 m/s
339.95 K, 1001.8 kPa | 140.68 ± 0.048 m/s
339.95 K, 1001.9 kPa | 140.68 ± 0.047 m/s
339.95 K, 1198.4 kPa | 134.8 ± 0.047 m/s
339.96 K, 99.31 kPa | 161.86 ± 0.04 m/s
339.96 K, 200.05 kPa | 159.82 ± 0.04 m/s
339.96 K, 311.18 kPa | 157.48 ± 0.04 m/s
339.96 K, 400.04 kPa | 155.58 ± 0.04 m/s and 155.58 ± 0.041 m/s
339.96 K, 511.39 kPa | 153.07 ± 0.041 m/s
339.96 K, 797.05 kPa | 146.18 ± 0.046 m/s
339.96 K, 1001.9 kPa | 140.68 ± 0.048 m/s
339.97 K, 99.31 kPa | 161.86 ± 0.04 m/s
339.97 K, 200.05 kPa | 159.82 ± 0.04 m/s
339.97 K, 200.06 kPa | 159.82 ± 0.04 m/s
339.97 K, 400.04 kPa | 155.58 ± 0.041 m/s
339.97 K, 799.59 kPa | 146.12 ± 0.046 m/s
339.98 K, 595.08 kPa | 151.15 ± 0.042 m/s
339.98 K, 799.46 kPa | 146.12 ± 0.044 m/s
339.98 K, 799.52 kPa | 146.12 ± 0.046 m/s
359.95 K, 99 kPa | 166.68 ± 0.041 m/s
359.95 K, 99.01 kPa | 166.68 ± 0.041 m/s
359.96 K, 99 kPa | 166.68 ± 0.041 m/s
359.96 K, 99.01 kPa | 166.69 ± 0.047 m/s and 166.68 ± 0.041 m/s
359.96 K, 307 kPa | 163.12 ± 0.041 m/s
359.96 K, 510.35 kPa | 159.46 ± 0.046 m/s
359.96 K, 808.74 kPa | 153.75 ± 0.046 m/s
359.96 K, 1598.8 kPa | 135.69 ± 0.05 m/s
359.97 K, 307 kPa | 163.12 ± 0.041 m/s
359.97 K, 511.03 kPa | 159.45 ± 0.042 m/s
359.97 K, 808.65 kPa | 153.75 ± 0.045 m/s
359.97 K, 808.68 kPa | 153.75 ± 0.045 m/s
359.97 K, 1174.2 kPa | 146.04 ± 0.048 m/s
359.97 K, 1174.3 kPa | 146.04 ± 0.047 m/s
359.97 K, 1598.8 kPa | 135.7 ± 0.05 m/s
359.97 K, 2002.9 kPa | 123.58 ± 0.052 m/s and 123.58 ± 0.055 m/s
359.98 K, 1598.8 kPa | 135.7 ± 0.05 m/s
359.98 K, 2002.9 kPa | 123.58 ± 0.054 m/s
379.99 K, 98.62 kPa | 171.32 ± 0.042 m/s
379.99 K, 98.63 kPa | 171.32 ± 0.042 m/s
379.99 K, 297.94 kPa | 168.44 ± 0.042 m/s
